According to PubChem BioAssay (NCI):
“And” between values parts separate entries of the source, which are not always exact repeats. Identical values can stand only once.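 1) Cells in 96-well plates. 2) Compound, 48 h, 5 concentrations. 3) Linear interpolation between surrounding doses. 4) Unreached endpoint = highest concentration. GI50 is the concentration that inhibits growth by half. TGI marks complete inhibition of growth.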

How the values were obtained:
Test in all cases: NCI anticancer screen, dose series, 48 h
RXF 393 renal = system: RXF 393 renal
SF-268 CNS = system: SF-268 CNS
HCT-116 colon = system: HCT-116 colon
NCI/ADR-RES ovarian = system: NCI/ADR-RES ovarian
NCI-H226 lung = system: NCI-H226 lung
HS 578T breast = system: HS 578T breast
BT-549 breast = system: BT-549 breast
SNB-75 CNS = system: SNB-75 CNS
EKVX NSCLC = system: EKVX NSCLC
M14 melanoma = system: M14 melanoma

SMILES	GI50 (RXF 393 renal)	TGI (RXF 393 renal)	GI50 (SF-268 CNS)	TGI (SF-268 CNS)	GI50 (HCT-116 colon) [nM]	TGI (HCT-116 colon)	GI50 (NCI/ADR-RES ovarian)	TGI (NCI/ADR-RES ovarian)	GI50 (NCI-H226 lung)	TGI (NCI-H226 lung)	GI50 (HS 578T breast)	TGI (HS 578T breast)	GI50 (BT-549 breast)	TGI (BT-549 breast)	GI50 (SNB-75 CNS)	TGI (SNB-75 CNS)	GI50 (EKVX NSCLC)	TGI (EKVX NSCLC)	GI50 (M14 melanoma)	TGI (M14 melanoma)
COC1CC2CCC(C)C(O)(O2)C(=O)C(=O)N2CCCCC2C(=O)OC(C(C)CC2CCC(O)C(OC)C2)CC(=O)C(C)C=C(C)C(O)C(OC)C(=O)C(C)CC(C)/C=C/C=C/C=C1C (configuration not stated)	< 5 nM	7480 nM	3820 nM	11500 nM	4340	11300 nM	1860 nM	30300 nM	< 5 nM	9710 nM	7.42 nM	24400 nM	6.09 nM	11000 nM	< 5 nM	7930 nM	< 5 nM	13700 nM	5410 nM	13300 nM
COC(=O)C1=C(C(=O)ON)C2C=CC1(C(Cc1ccccc1)Nc1ccccc1)O2 (configuration not stated)	1780 nM	3200 nM	10500 nM	23000 nM	1770	3240 nM	14700 nM	36200 nM	12800 nM	25600 nM	25300 nM	> 100000 nM	2070 nM	4870 nM	8900 nM	21200 nM	1750 nM	3510 nM	–	–
COc1cc(C)c(Cl)cc1C1=NN(c2ccc(S(N)(=O)=O)cc2)C(/C=C/c2ccccc2)C1 (configuration not stated)	1710 nM	3500 nM	4400 nM	> 100000 nM	1900	4720 nM	3460 nM	37700 nM	1530 nM	3460 nM	2890 nM	9830 nM	2350 nM	4760 nM	3000 nM	30100 nM	2680 nM	22000 nM	4110 nM	24300 nM
COc1ncc(-c2ccc3nccc(-c4ccnnc4)c3c2)cc1NS(=O)(=O)c1ccc(F)cc1F	4.8 nM and < 10 nM	43.6 nM and 35.1 nM	12.7 nM and 14.8 nM	> 10000 nM and 9230 nM	15.5	2310 nM and 1550 nM	22.8 nM and 24.6 nM	> 8810 nM and 4370 nM	26.9 nM and 20.8 nM	> 3680 nM and 2910 nM	2.12 nM and < 10 nM	43.3 nM and 23 nM	3.92 nM and < 10 nM	68.8 nM and 43.4 nM	1.33 nM and < 10 nM	13.5 nM and < 15.6 nM	13.8 nM and 13 nM	1230 nM and 1730 nM	13 nM and < 10 nM	794 nM and 485 nM
CCOC(=O)c1[nH]c(Br)c(-c2ccc(Br)cc2)c1Br	–	8140 nM	836 nM	34800 nM	445	1920 nM and 10600 nM	407 nM	–	–	6880 nM	–	13200 nM	8520 nM	–	461 nM	2680 nM and 4410 nM	852 nM	17300 nM	–	17900 nM
